The nature of data set [1]: Pharmacokinetic assay in SD rats (plasma and brain tissue). The class given is in vivo. To be noted: rat, po, male SD rats, p.o. 5 mg/kg; for AUC(0-t): read-out: Area under curve AUC0-t; for Tmax: read-out: Peak time tmax; for Cmax: read-out: Plasma concentration Cmax. The method, then: Test Example 4. Pharmacokinetic Assays in SD Rats
SD rats were used as test animals. The in vivo (plasma and brain tissue) pharmacokinetic behavior of the compounds of the present invention was investigated by oral administration of the compound in rats at a dose of 5 mg/kg.
Male SD rats (21 animals per group), purchased from Shanghai JieSiJie Laboratory Animal Co., Ltd., under the Animal Production License Number of SCXK (Shanghai) 2013-0006 No. 311620400001794.
The experimental drug was dissolved in 0.5% CMC-Na (1% Tween 80) by sonication to formulate a clear solution or a homogeneous suspension.
After an overnight fast, male SD rats (21 animals per group) were administered p.o. with the experimental drug at an administration dose of 5 mg/kg and the administration volume of 10 mL/kg.
Rats were sacrificed with CO2 at 0, 0.5, 1, 2, 4, 8 and 24 hours before and after the drug administration. 8 mL of blood was collected by cardiac puncture, placed in EDTA-K2 tubes, and centrifuged at 4° C. at 6,000 rpm for 6 min. Plasma was separated and stored at −80° C. The whole brain tissue was dissected and weighed, and then placed in a 2 mL centrifuge tube and stored at −80° C.
2.6 Sample Processing: • 1) 160 μL of acetonitrile was added to 40 μL of plasma sample for precipitation. After mixing, the sample was centrifuged at 3500×g for 5-20 minutes. • 2) 90 μL of acetonitrile containing internal standard (100 ng/mL) was added to 30 μL of plasma or brain homogenate sample for precipitation. After mixing, the sample was centrifuged at 13,000 rpm for 8 minutes. • 3) 70 μL of water was added to 70 μL of treated supernatant, and mixed by vortex for 10 minutes. Then 20 μL of the sample was analyzed by LC/MS/MS to determine the concentration of the compound to be tested. The LC/MS/MS instrument for analysis was AB Sciex API 4000 Qtrap.
2.7 Liquid Chromatography Analysis: • Liquid chromatography conditions: Shimadzu LC-20AD pump • Chromatographic column: Agilent ZORBAX XDB-C18 (50×2.1 mm, 3.5 μm) Mobile phase: Eluent A was 0.1% formic acid in water, and Eluent B was acetonitrile. • Flow rate: 0.4 mL/min • Elution time: 0-4.0 minutes, the eluate was as follows:
The major pharmacokinetic parameters were calculated by using WinNonlin 6.1, and the results of the pharmacokinetic experiments in rats were shown in Table 3 below: […]

In data set [2] the test system is luteinizing hormone (LH) content in plasma. Nature of the data set: Luteinizing hormone (LH) content in plasma of bilateral ovariectomy (OVX) rats. The class given is in vivo. To be noted: oral 30 mg/kg, plasma LH 0-8 h. From the text:
Test Example 5. Effect of the Compounds of the Present Invention on Luteindzing Hormone (LH) Content in Plasma of Bilateral Ovariectomy (OVX) Rats
The objective of this test example was to determine the effect of the compounds on luteinizing hormone (LH) in plasma of bilateral ovarnectomy (OVX) rats.
10-Week-old female bilateral ovariectomy SD rats were purchased from Beijing Vital River Laboratory Animal Technology Co., Ltd. The animals were housed in a SPF grade animal facility with 5 SD rats per cage. The cages, bedding, feed and water were disinfected at high temperatures before use. All animals had free access to food and water.
Drug administration by groups: 10-Week-old female SD rats were subjected to bilateral ovariectomy and used in experiments after 3 weeks. Each SD rat was fasted overnight before the experiment, and then randomly divided into groups (3 rats per group) before the drug administration. Different test compounds were administered orally to each drug administration group at a dose of 30 mg/kg and a volume of 10 mL/kg.
Sample collection: 0.2-0.3 mL of whole blood of the SD rats in each group was collected at 0, 0.5, 1, 2, 4, 8 hours before and after the drug administration, and placed in EDTA-K2 tubes. The tubes were inverted and mixed well, and centrifuged at 4° C. at 5,000 rpm for 5 min. Then the plasma was separated and stored in an ultra-low temperature freezer (−80±10° C.).
Sample detection: All reagents, samples and ELISA plates were equilibrated at room temperature (20-25° C.) for at least 30 min. The sample was thawed, vortexed and centrifuged for use. The standard curve was prepared with Assay buffer C according to the concentration sequence of 10, 5, 2.5, 1.25, 0.625, 0.313 and 0. The sample was diluted by two folds with Sample dilution buffer G and left to stand at room temperature for 10 min. […] The OD values of each well was read at a wavelength of 450 nm with a microplate reader.
The standard curve was plotted by using Graphpad, and the concentration of the sample was calculated. […]

The Tmax is the time from dosing to the highest level. Broadly, the MRT is a mean duration of stay, worked out from the concentration-time curve.

Where two headings read alike, the source gives them in different places.

As to `C[C@@H]1c2nnc(-c3nc4cnc(Cl)cc4s3)n2CCN1C(=O)c1ccc(F)cc1` [Example 37, (R)-(3-(6-Chlorothiazolo[4,5-c]pyridin-2-yl)-8-methyl-5,6-dihydro-[1,2,4]triazolo[4,3-a]pyrazin-7(8H)-yl)(4-fluorophenyl)methanone], in data set [1] (Brain), the AUC(0-t) stood at 4200 ng·h/mL, the Tmax was 4 h and the Cmax was 1640 ng/mL. Also, in data set [1] (Plasma), the AUC(0-t) is 77800 ng·h/mL, the Tmax was 8 h and the Cmax stood at 4000 ng/mL. In addition, the “ΣAUC(ΔLH/LH · h, Mean ± SD)” value in data set [2] is given as −0.52 ± 2.24 ΔLH/LH · h.
With `[2H]c1cc(C(=O)N2CCn3c(-c4nc(Cl)ns4)nnc3[C@H]2C)ccc1F` [Example 56, (R)-(3-(3-Chloro-1,2,4-thiadiazol-5-yl)-8-methyl-5,6-dihydro-[1,2,4]triazolo[4,3-a]pyrazin-7(8H)-yl)(4-fluorophenyl-3-d)methanone], in data set [1] (Brain), the AUC(0-t) was 2710 ng·h/mL, the Tmax was 1 h and the Cmax amounted to 798 ng/mL. Moreover, in data set [1] (Plasma), the AUC(0-t) worked out at 6150 ng·h/mL, the Tmax amounted to 2 h and the Cmax amounted to 1170 ng/mL. For the same compound, the half-life in data set [1] (Plasma, read-out: Half life t1/2 (converted)) was 3.1 h. Moreover, the MRT in data set [1] (Plasma, read-out: Mean residence time MRT) was 5.1 h.

The values are drawn from patent US20230271969A1, “NITROGEN-CONTAINING FUSED RING DERIVATIVE INHIBITOR, PREPARATION METHOD THEREFOR AND USE THEREOF” (Shanghai Hansoh Biomedical Co., Ltd., priority 2020, published 2023).
